In PMC6520937 (Viruses, 2019):
Several values for one entry are separate records, joined by “and”; a condition that tells them apart may be missing. Equal entries are not always repeated. Where two headings read alike, the source gives them in different places.

Key:
[1] = test system: SFTSV; details: read-out: IC50 against SFTSV; cited from earlier work
[2] = in vitro; details: African green monkey
[3] = test system: SFTSV; assay type: cell-based, Severe fever with thrombocytopenia syndrome virus; details: pH 5
[4] = test system: SFTSV; assay type: cell-based, Severe fever with thrombocytopenia syndrome virus
[5] = test system: SFTSV; experiment: microbe, parasite or virus in culture; assay type: cell-based
[6] = test system: SFTSV; experiment: microbe, parasite or virus in culture; assay type: cell-based; details: for IC50: Severe fever with thrombocytopenia syndrome virus
[7] = test system: SFTSV; assay type: cell-based, Severe fever with thrombocytopenia syndrome virus; remark: listed apart in the source
[8] = test system: SFTSV; assay type: cell-based, Severe fever with thrombocytopenia syndrome virus; remark: listed apart in the source
[9] = test system: SFTSV; assay type: cell-based, Severe fever with thrombocytopenia syndrome virus; remark: listed apart in the source

Row | SMILES | IC50 [1] [µM] | CC50 [2] [µM] | IC99 [6] [µM] | Selectivity Index (CC50/IC50) [6] | IC50 [6] [µM] | further results
1 | CCN(CC)Cc1cc(Nc2ccnc3cc(Cl)ccc23)ccc1O [amodiaquine] | 19.1 | – | – | – | – | –
2 | Oc1c(Cl)cc(Cl)c(Cl)c1Cc1c(O)c(Cl)cc(Cl)c1Cl [Hexachlorophene, hexachlorophene] | – | 24.3 ± 3.2 | 7.5 ± 1.2 | 18.7 | 1.3 ± 0.3 | syncytium formation in SFTSV-infected cells [3]: dramatically inhibited; inhibitory activity on virus attachment, cells pretreated with drug [4]: no significant; plaque reduction [5]: 100%; IC50 ([5]; Severe fever with thrombocytopenia syndrome virus, Vero, read-out: IC50, plaque reduction assay): 2.6 ± 0.14 µM; IC50 ([6]; read-out: IC50 against SFTSV): 1.3 to 2.6 µM; virus infectivity after pre-incubation of SFTSV with drug [7]: not significantly; intracellular viral RNA load vs DMSO, drug co-mixed with SFTSV [8]: Significantly lower viral RNA load
3 | NC(=O)c1ncn([C@@H]2O[C@H](CO)[C@@H](O)[C@H]2O)n1 [ribavirin] | 40.1 | – | – | – | – | –
4 | Nc1ccn([C@@H]2O[C@H](CO)[C@@H](O)[C@H]2F)c(=O)n1 [2′-fluoro-2′-deoxycytidine] | 3.7 | – | – | – | – | –
5 | O=C(O)/C=C/c1ccc(O)c(O)c1 [caffeic acid] | 180 | – | – | – | – | –
6 | Oc1c(Br)cc(Br)c2cccnc12 [Broxyquinoline, broxyquinoline] | – | 36.4 ± 5.5 | 16.3 ± 4.3 | 6.3 | 5.8 ± 1.3 | –
7 | CNC(=O)c1cc(Oc2ccc(NC(=O)Nc3ccc(Cl)c(C(F)(F)F)c3)c(F)c2)ccn1 [Regorafenib, regorafenib] | – | 31.3 ± 0.5 | 11.3 ± 0.5 | 7.0 | 4.5 ± 0.5 | –
8 | NC(=O)c1nc(F)c[nH]c1=O [favipiravir] | 25 | – | – | – | – | fold read-out between drug-treated and DMSO-treated groups by ELISA [9]: > 10 fold and > 15 fold; difference in SFTSV RNA load between drug-treated and DMSO-treated groups [6]: approximately 4 log10; intracellular viral RNA load vs DMSO, drug co-mixed with SFTSV [8]: no statistically significant difference
9 | Oc1cc(Cl)ccc1Oc1ccc(Cl)cc1Cl [Triclosan, triclosan] | – | 17.7 ± 2.9 | 8.5 ± 2.1 | 5.5 | 3.2 ± 0.4 | –
10 | CC1=NN(c2ccc(C)c(C)c2)C(=O)/C1=N\Nc1cccc(-c2cccc(C(=O)O)c2)c1O [Eltrombopag, eltrombopag] | – | 18.4 ± 0.2 | 10.3 ± 3.4 | 4.5 | 4.1 ± 0.2 | –
